Test results published in patent US20200223826A1, “Glucose-6-Phosphate Dehydrogenase (G6PD)-Modulating Agents And Methods Of Treating G6PD Deficiency” (The Board of Trustees of the Leland Stanford Junior …, priority 2017, published 2020).

Tests used:
[1] = target: 6-phosphogluconate dehydrogenase (6PGD) (Homo sapiens, UniProt P52209); experiment: Selectivity: dimerization or activity of other NAD/NADP+-dependent enzymes; assay type: biochemical
[2] = target: glyceraldehyde 3-phosphate dehydrogenase (GAPDH) (Homo sapiens, UniProt P04406); experiment: as above; assay type: biochemical
D181A G6PD = target: T1, D181A G6PD (Homo sapiens, UniProt P11413, D181A); experiment: Canton-mimicking mutant: activity and proteolytic stability; assay type: biochemical
T1 construct: His (pET-28a) (N, cleaved yes); made in house; host or cells: E. coli C43 (DE3)
Description: (§1) Enzyme activity was measured by monitoring NADPH production, which was coupled with diaphorase converting resazurin to fluorescent resorufin (excitation at 565 nm and emission at 590 nm); fluorescent signal was thus proportional to G6PD activity. Assays were performed at 25° C. and run for 5 minutes in buffer containing 50 mM Tris (pH 7.4), 0.5 mM EDTA, 3.3 mM MgCl2, 1 U/ml diaphorase, 0.1 mM resazurin. 10 ng of recombinant enzymes or 10 μg of cell lysates was used for the assay with 10 μM NADP^+ (Sigma) as cofactor and 100 μM G6P (Sigma) as substrate. Steady-state kinetic parameters were obtained by varying concentrations of NADP^+ (0-10 μM) with a constant concentration of G6P (100 μM) and similarly for G6P (0-100 μM) with a constant concentration of NADP^+ (10 μM) with 10 ng of recombinant enzymes. Data analysis was performed using GraphPad Prism software v.6 (GraphPad Software, La Jolla, Calif. USA). Kinetic parameters were obtained by fitting the data to the Michaelis-Menten equation.
(§2) 200 ng of recombinant enzymes were incubated with 1 μL of 10 ng/μL chymotrypsin for 1 hour at room temperature. 100 μM of the compound was added to some reaction conditions. The following protein level was examined by Western blot.

N185A G6PD = target: T2, N185A G6PD (Homo sapiens, UniProt P11413, N185A); experiment: as above; assay type: biochemical
T2 construct: His (pET-28a) (N, cleaved yes); made in house; host or cells: E. coli C43 (DE3)
Description: as §1, §2

zebrafish embryos = experiment: Zebrafish embryo development; assay type: in vivo; conditions: treated at 24 hpf, scored at 32 or 48 hpf
Description: Adult zebrafish (AB strain; 3-18 months old) were raised and embryos were obtained through natural mating and staged according to standard protocols. Adult tbx16b104/+ were obtained. All animal procedures were performed according to NIH guidelines. Embryos were raised in E3 medium at 28.5° C.
Embryos were dechorinated with pronase at 24 hours post fertilization (hpf) and treated with 50 μg/ml of chloroquine and/or AG1 by directly adding the compounds to the well. For ROS measurements, embryos were incubated with compounds for 2 hours, and then the ROS detecting reagent (CM-H2DCFDA) was added at a final concentration of 500 ng/ml to the well for a total treatment time of 5 hours. One embryo was placed to each well of a black, opaque 96-well plate. The florescence was analyzed with excitation/emission at 485/525 nm. After ROS assays, embryos at about 32 hpf were pooled and lysed in buffer containing 50 mM Tris (pH 7.4), 150 mM NaCl, 1 mM EDTA, 0.1% NP-40, and protease inhibitor cocktail, which was followed by three cycles of freeze and thawing in liquid nitrogen. The lysate was centrifuged at 14,000 rpm at 4° C. for 15 minutes. Total protein concentration in the supernatants (total lysate) was determined by Bradford method. […] 50 μg of the lysate was used to measure NADPH levels using a NADPH quantification kit (Biovision), according to the manufacturer's instructions. […]

[3] = system: G6PD in zebrafish embryo lysates; experiment: G6PD activity in lysates of pooled zebrafish embryos; assay type: in vivo; conditions: lysates of pooled AG1-treated embryos
Description: Embryos were dechorinated with pronase at 24 hours post fertilization (hpf) and treated with 50 μg/ml of chloroquine and/or AG1 by directly adding the compounds to the well. For ROS measurements, embryos were incubated with compounds for 2 hours, and then the ROS detecting reagent (CM-H2DCFDA) was added at a final concentration of 500 ng/ml to the well for a total treatment time of 5 hours. One embryo was placed to each well of a black, opaque 96-well plate. The florescence was analyzed with excitation/emission at 485/525 nm. After ROS assays, embryos at about 32 hpf were pooled and lysed in buffer containing 50 mM Tris (pH 7.4), 150 mM NaCl, 1 mM EDTA, 0.1% NP-40, and protease inhibitor cocktail, which was followed by three cycles of freeze and thawing in liquid nitrogen. The lysate was centrifuged at 14,000 rpm at 4° C. for 15 minutes. Total protein concentration in the supernatants (total lysate) was determined by Bradford method. 50 μg of total lysate was loaded onto 10% SDS-PAGE gels and the protein level was examined by Western blot using anti-G6PD antibody (Abcam (G6PD: AB87230)). 10 μg of total lysate was used for enzymatic assay. 50 μg of the lysate was used to measure NADPH levels using a NADPH quantification kit (Biovision), according to the manufacturer's instructions.

[4] = target: T3, G6PD in human erythrocytes (Homo sapiens, UniProt P11413); experiment: G6PD activity in erythrocytes under oxidative stressors; assay type: cell-based; conditions: drug-induced oxidative stress
T3 construct: host or cells: human erythrocytes
Description: (§3) De-identified blood samples were obtained from the Stanford Blood Center. Erythrocytes were collected by filtering the samples through a cellulose slurry to remove platelets and leukocytes and then washed with saline. G6PD activity was measured (Beutler E. Red cell metabolism: A manual of biochemical methods (3rd edition). Grune & Stratton (1984)). […] A 5% erythrocyte suspension was pre-incubated with 1-5 μM AG1 at 4° C. overnight, which was followed by treatment with (or without) either 1 mM chloroquine (CQ) or 1 mM diamide for 3-4 hours at 37° C. (for hemolysis assay with chloroquine, the mixture was incubated under light). Then centrifugation at 1,000 rpm for 5 minutes was followed. Hemoglobin release in the supernatant was monitored by measuring absorbance at 540 nm. […] After wash, the samples were lysed with 0.1% Triton X-100 (final concentration), and the florescence was analyzed with excitation/emission at 485/525 nm. GSH measurement was determined using a Cayman glutathione assay kit (Cayman Chemicals, 703002). […] The absorbance was read at 412 nm. For storage assay, a 5% erythrocyte suspension was stored at 4° C. with and without 1 μM AG1, and hemolysis and G6PD activity were monitored every week for 28 days to examine whether AG1 improves preservation of erythrocytes over time. Protein leakage was also examined by measuring the absorbance of the supernatant of samples at 280 nm. […]

[5] = system: band 3 protein in human erythrocytes; experiment: Band 3 protein clustering in erythrocytes; assay type: cell-based; conditions: chloroquine or diamide treatment
human erythrocytes = experiment: Erythrocyte refrigerated storage assay, hemolysis; assay type: cell-based; conditions: 672 h, read-out: reduction of hemolysis
Description: as §3

T3 sequence (P11413 2-515 limits assumed): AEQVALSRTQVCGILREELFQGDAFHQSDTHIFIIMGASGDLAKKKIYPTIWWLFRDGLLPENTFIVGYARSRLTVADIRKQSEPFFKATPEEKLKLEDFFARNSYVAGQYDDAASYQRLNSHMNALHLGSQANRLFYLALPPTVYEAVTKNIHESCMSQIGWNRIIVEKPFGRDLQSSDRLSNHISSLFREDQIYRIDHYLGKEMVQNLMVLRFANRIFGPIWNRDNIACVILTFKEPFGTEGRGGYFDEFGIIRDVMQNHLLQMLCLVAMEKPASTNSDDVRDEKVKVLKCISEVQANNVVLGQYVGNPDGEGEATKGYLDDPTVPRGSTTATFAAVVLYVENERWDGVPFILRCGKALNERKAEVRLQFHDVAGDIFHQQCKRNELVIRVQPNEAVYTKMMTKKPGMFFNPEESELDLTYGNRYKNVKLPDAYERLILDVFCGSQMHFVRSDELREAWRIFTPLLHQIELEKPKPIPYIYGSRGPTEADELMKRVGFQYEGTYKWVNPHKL
6-phosphogluconate dehydrogenase (6PGD), sequence (P52209 whole entry): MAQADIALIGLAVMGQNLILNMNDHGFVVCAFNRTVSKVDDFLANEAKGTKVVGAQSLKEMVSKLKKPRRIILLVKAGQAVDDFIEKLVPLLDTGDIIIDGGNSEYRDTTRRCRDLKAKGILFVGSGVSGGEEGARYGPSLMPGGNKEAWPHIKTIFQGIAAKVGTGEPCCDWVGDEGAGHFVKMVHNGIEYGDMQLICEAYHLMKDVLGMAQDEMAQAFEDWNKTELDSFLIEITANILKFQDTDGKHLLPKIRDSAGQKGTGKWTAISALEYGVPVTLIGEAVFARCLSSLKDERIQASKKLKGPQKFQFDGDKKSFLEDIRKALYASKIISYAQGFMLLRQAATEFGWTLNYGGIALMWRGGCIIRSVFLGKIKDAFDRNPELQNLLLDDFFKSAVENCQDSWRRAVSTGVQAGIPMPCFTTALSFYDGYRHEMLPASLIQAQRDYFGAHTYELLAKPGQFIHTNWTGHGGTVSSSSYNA
glyceraldehyde 3-phosphate dehydrogenase (GAPDH), sequence (P04406 whole entry, species assumed): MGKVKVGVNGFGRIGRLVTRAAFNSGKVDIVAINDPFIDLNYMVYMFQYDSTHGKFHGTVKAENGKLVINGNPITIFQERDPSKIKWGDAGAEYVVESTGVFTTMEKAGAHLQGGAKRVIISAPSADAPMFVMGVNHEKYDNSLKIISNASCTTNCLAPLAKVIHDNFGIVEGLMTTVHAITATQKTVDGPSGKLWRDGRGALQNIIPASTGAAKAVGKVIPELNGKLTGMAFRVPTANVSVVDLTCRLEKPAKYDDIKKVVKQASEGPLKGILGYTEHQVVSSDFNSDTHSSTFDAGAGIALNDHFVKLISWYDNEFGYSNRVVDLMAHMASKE
T2 sequence (P11413 whole entry N185A): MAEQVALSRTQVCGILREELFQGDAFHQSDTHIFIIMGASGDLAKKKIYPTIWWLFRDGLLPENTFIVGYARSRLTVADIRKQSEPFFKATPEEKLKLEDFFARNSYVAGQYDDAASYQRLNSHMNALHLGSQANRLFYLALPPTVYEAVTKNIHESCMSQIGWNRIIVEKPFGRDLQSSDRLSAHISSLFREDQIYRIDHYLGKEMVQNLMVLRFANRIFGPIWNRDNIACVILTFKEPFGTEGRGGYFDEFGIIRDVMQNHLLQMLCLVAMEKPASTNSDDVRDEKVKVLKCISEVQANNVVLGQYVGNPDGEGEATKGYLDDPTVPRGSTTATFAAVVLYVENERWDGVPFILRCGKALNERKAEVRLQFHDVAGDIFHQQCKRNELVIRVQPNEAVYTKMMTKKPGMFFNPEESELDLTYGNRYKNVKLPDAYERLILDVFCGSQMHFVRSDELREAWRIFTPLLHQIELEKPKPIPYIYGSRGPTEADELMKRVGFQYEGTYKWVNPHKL
T1 sequence (P11413 whole entry D181A): as the sequence (P11413 whole entry N185A) above, with D181A, A185N counted along it

SCCNCCc1c[nH]c2ccccc12 [AG1, 2-[2-(1H-indol-3-yl)ethylamino]ethanethiol]
effect on dimerization or activity [1]: no effect
effect on dimerization or activity [2]: no effect
activity and proteolytic stability (D181A G6PD): increased activity and proteolytic stability
activity and proteolytic stability (N185A G6PD): increased activity and proteolytic stability
concentrations at which embryos developed normally (zebrafish embryos): < 10 µM
G6PD activity [3]: slight increase
G6PD activity [4]: increased
band 3 protein aggregation [5]: alleviated
reduction of hemolysis at 1 µM (human erythrocytes): 12%
